Experimental data from patent US5010204A, “Acetazolamide-related compounds, process for their preparation, and pharmaceutical composition containing the same” (Instituto Chimico Internazionale Dr. Giuseppe Rende S.r.l., priority 1988, dated 1991).
pIC50: −log10 of the molar value. Converted amounts (≈) assume the structure as drawn.

Assays:
carbonic anhydrase = experiment: in vitro inhibition of carbonic anhydrase (enzymic activity), CO2-electrode potentiometric analysis; type: biochemical; conditions: samples at 10^-7, 3×10^-7, 6×10^-7 and 10^-6 molar; read-out: I50 (molar concentration that gives a 50% reduction of enzymic activity)
From the text: For determining the in vitro activities, samples were employed at molar concentrations of 10^-7, 3×10^-7, 6×10^-7, and 10^-6, and the results given in Table 1 were obtained by CO2 -electrode potentiometric analysis.

[1] = solubility in buffer pH 7.6; type: physicochemical; conditions: aqueous buffer
[2] = tested on: ocular pressure in rabbit; experiment: decrease in ocular pressure in rabbit, transient ocular hypertension model (5% glucose infusion), topical instillation; type: in vivo; set-up: endoocular pressure, 10' OS / endoocular pressure, 20' OC / endoocular pressure, 40' OS: unit not given beside the values; conditions: for endoocular pressure, 10' OS / endoocular pressure, 20' OS / endoocular pressure, 40' OS: left eye (diluent-treated fellow eye, control); for endoocular pressure, 10' OS / endoocular pressure, 10' OD: 10 minutes; for endoocular pressure, 20' OS / endoocular pressure, 20' OC: 20 minutes; for endoocular pressure, 40' OS / endoocular pressure, 40' OD: 40 minutes; for endoocular pressure, 10' OD / endoocular pressure, 20' OC / endoocular pressure, 40' OD: right eye (drug-treated, 2 drops of 2% solution)
Description: In vivo experiments were carried out on the compounds of the present invention, and, amongst the others, those experiments whose results are reported in the following Table 2, concerning the decrease in the ocular pressure in rabbit.
For determining such results a transient ocular hypertension model was employed, said hypertension being obtained in rabbit through rapid venous infusion of suitable volumes (20 ml/kg) of 5% glucose solution.
Albino rabbits from the same farm in New Zealand were employed, whose weights were between 2,500 e 3,000 g. Each treatment was carried out on a group of six animals.
The drug was prepared in a phosphate buffer water solution at pH 7.5. The solution was made isotonic with sodium chloride and the possibility of microbial contamination was prevented through the addition of benzalkonium chloride. In case of compounds of low solubility, a dispersing suspension of the finely divided compound in methyl cellulose was prepared. The solution (or the suspension) was instilled into the right eye of each animal in the amount of 2 drops of 2% solution, at an interval of 2 minutes from one another. The left eye was treated with an equal volume of diluent.
The measurements of pressure were performed while animals were in superficial local anaesthesia (0.4% benoxinate), by means of a McKay-Marg electronic pressure gage, at the times -30', 0', 10', 20', 40'.
The following table reports the endoocular pressure measured after 10, 20, and 40 minutes both in the right and in the left eye: the higher the difference in the ocular pressure between the treated eye and the untreated eye, the higher the efficiency of the drug considered.

[3] = in words; cited from earlier work
[4] = in words; cited from earlier work; remark: listed apart in the source
[5] = stability of the product (hydrolysis), observed on preparation; type: physicochemical; conditions: residue after reaction with liquid ammonia

Structure (SMILES) | pIC50 (carbonic anhydrase) | solubility [1] [µg/mL] | endoocular pressure, 10' OS [2] | endoocular pressure, 20' OS [2] | endoocular pressure, 40' OS [2] | endoocular pressure, 10' OD [2] | endoocular pressure, 20' OC [2] | endoocular pressure, 40' OD [2] | water solubility [3] | absorption when instilled in the eye [4] | stability [5]
NCCCCC(=O)Nc1nnc(S(N)(=O)=O)s1 [RENDE 027, 5-(5-Aminovaleroylamino)-2-sulfonamido-1,3,4-thiadiazole] | 6.36 | 208 (≈ 0.745 mM) | 26.17 | 21.5 | 17.33 | 24.0 | 20.83 | 16.83 |  |  | 
COC(=O)CCC(=O)N=c1sc(S(N)(=O)=O)nn1C [RENDE 024, 5-Methylsuccinoylamino-4-methyl-2-sulfonamido-1,3,4-thiadiazole] | 6.35 | 2250 (≈ 7.3 mM) | 25.83 | 21.5 | 17.83 | 24.67 | 20.33 | 17.33 |  |  | 
NS(=O)(=O)c1nnc(NC(=O)CCC(=O)O)s1 [RENDE 037, 5-succinoylamino-2-sulfonamido-1,3,4-thiadiazolic acid] |  | 28700 (≈ 102 mM) | 26.0 | 21.67 | 19.0 | 19.33 | 17.17 | 15.67 |  |  | 
CCOC(=O)CCC(=O)Nc1nnc(S(N)(=O)=O)s1 [RENDE 029, 5-Ethylsuccinoylamino-2-sulfonamido-1,3,4-thiadiazole] |  | 2760 (≈ 8.95 mM) | 25.67 | 20.67 | 17.67 | 20.33 | 17.33 | 15.67 |  |  | 
CC(C)COC(=O)CCC(=O)Nc1nnc(S(N)(=O)=O)s1 [RENDE 034, 5-Isobutylsuccinoylamino-2-sulfonamido-1,3,4-thiadiazole] | 6.43 | 1240 (≈ 3.69 mM) | 25.67 | 21.17 | 17.17 | 21.5 | 19.0 | 16.67 |  |  | 
CC(=O)Nc1nnc(S(N)(=O)=O)s1 [ACETAZOLAMIDE, 5-acetamido-2-sulfonamido-1,3,4-thiadiazole] |  |  |  |  |  |  |  |  | practically insoluble | poor absorption | 
NS(=O)(=O)c1nnc(NC(=O)CCC(=O)OCC(F)(F)F)s1 [Rende 039, 5-Trifluoroethylsuccinoylamino-2-sulfonamido-1,3,4-thiadiazole] |  |  |  |  |  |  |  |  |  |  | very unstable and becomes very easily hydrolysed
CCCCCOC(=O)CCC(=O)N=c1sc(S(N)(=O)=O)nn1C [RENDE 035, 5-Pentylsuccinoylamino-4-methyl-2-sulfonamido-1,3,4-thiadiazole] | 6.51 | 535 (≈ 1.47 mM) | 25.17 | 22.0 | 18.0 | 24 | 20.67 | 17.83 |  |  | 
COC(=O)CCC(=O)Nc1nnc(S(N)(=O)=O)s1 [RENDE 023, 5-methylsuccinoylamino-2-sulfonamido-1,3,4-thiadiazole] | 6.26 | 740 (≈ 2.51 mM) | 25.5 | 20.17 | 16.67 | 25.33 | 19.5 | 16.5 |  |  | 
CCCCCOC(=O)CCC(=O)Nc1nnc(S(N)(=O)=O)s1 [RENDE 032, 5-Pentylsuccinoylamino-2-sulfonamido-1,3,4-thiadiazole] | 6.41 | 470 (≈ 1.34 mM) | 24.5 | 21.33 | 18.83 | 22.67 | 20.0 | 17.83 |  |  | 
